Data reported in US20110064713A1 (priority 2009, published 2011).

Test system: DU-145 cells
Type: cell-based, Human

## C=C1[C@@H](C)[C@H]2[C@H](Cc3ccccc3)NC(=O)[C@]23[C@H](OC(C)=O)/C=C/[C@@](C)(O)C(=O)[C@@H](C)C/C=C/[C@H]3[C@@H]1O [Cytochalasin-D]
  Relative Wound Density at 24 Hours, Mean: 3.3 ± 0.2
  Relative Wound Density at 24 Hours, Percent Relative to Media: 4%
  effect on cell migration: did not migrate
